Data from patent US5358712A, “Radiopharmaceutical agents for the detection of Alzheimer's disease” (Regents of the University of Minnesota, priority 1993, dated 1994).

What was measured:
vesamicol receptor = experiment: Blocking experiments: inhibition of radiotracer accumulation in the rat by coadministered compound; assay type: in vivo, rat (male Wistar); settings: rat, 60 min; for Brain: Blood Ratio / Heart: Blood Ratio / radioactivity in liver: iv
Protocol: *Animals in group 1 received an iv injection of (+)4-[^125 l]HIPP
only. For groups 2, 3, and 4, the radiotracer was coadministered with the
hydrochlorides of (+)7 (0.53 mg/kg), (-)7 (0.53 mg/kg) and vesamicol (0.3
Four groups of male Wistar rats (n=3) were used in these experiments. All animals received an iv dose of 8-10 μCi of the radiotracer in 0.1 ml of 50% aq. ethanol. Additionally, in groups 2, 3 and 4, the radiotracer was coadministered with (+)-HBrPP.HCl(1.3 μmol/kg), (-)-HBrPP.HCl(1.3 μmol/kg) and (dl)-vesamicol hydrochloride (1.1 μmol/kg), respectively. At 60 min. post-injection, blood was collected by cardiac puncture and the animals sacrificed as described above. The data was analyzed as outlined above.
NOTE: The dose of radiotracer injected was 5-7 mCi. Group I was the
control, injected with the radiotracer only. Group II included the
simultaneous injection of "cold"(dl)3-HIPP (HCl) (0.53 mg/kg). Group III
included the simultaneous injection of (dl) vesamicol (HCl) (0.31 mg/kg).
All rats were sacrificed at one hour postinjection.
NOTE: Group I was the control, injected with the radiotracer only. Group
II included the simultaneous injection of "cold"(dl)3-HIPP (HCl) (0.53
mg/kg). Group III included the simultaneous injection of (dl) vesamicol
hydrochloride (0.31 mg/kg). The dose of radiotracer was 8-9 μCi. All
rats were sacrificed at one hour postinjection.
NOTE: Group I received (+)[^125 l]13 only. Group II received the (+)
radiotracer coinjected with 0.31 mg/kg (dl)vesamicol hydrochloride. Group
III received (-)[^125 l]13 only. Group IV received the (-) radiotrace
coinjected with 0.31 mg/kg (dl)vesamicol hydrochloride. All animals were
sacrificed at one hour postinjection. The dose of radiotracer injected pe

rat brain = experiment: Ex vivo autoradiographic studies, regional distribution in the rodent brain; set-up: species or system rat (male Wistar); settings: 3 hours
Protocol: Four male Wistar rats weighing 300-330 g. were anesthetized with diethyl ether. While under anesthesia two animals each received an intravenous dose of 300 μCi of (-)-4-[^125 I]HIPP in […] of 50% aqueous ethanol. The second pair of animals received an iv dose of (+)-4-[^125I]HIPP (170 μCi) in the same solvent. The animals were sacrificed by decapitation three hours following radiotracer administration. The brains were harvested, embedded in Tissue Tek OCT embedding medium and frozen to -38° C. Twenty-micron thick brain sections were obtained at -15° C. using a Reicheft HistoSTAT cryostat microtome. The sections were dried and opposed to Kodak NMC film for autoradiography accompanied by external standards (^125 I-labelled microscales from Amersham). Images were subsequently digitized based on the linear scale obtained from these standards.

[1] = Tissue distribution (biodistribution) of radioiodinated compound in the rat; settings: for Brain: Blood Ratio / Heart: Blood Ratio / radioactivity in blood / radioactivity in brain / radioactivity in heart / radioactivity in kidney / radioactivity in liver / radioactivity in lung / radioactivity in muscle / radioactivity in spleen: iv
Protocol: Four groups of male Wistar rats (with four animals per group) weighing 200-350 g were used in these experiments. Each animal received, while under ether anesthesia, an intravenous injection of the radiotracer (10-20 μCi) dissolved in 0.1 ml of 50% aqueous ethanol. At 5, 30, and 60 and 180 min. post-injection, blood was collected from the anesthetized animals by cardiac puncture, and the animal was immediately sacrificed by cardiectomy. The organs and tissues of interest were harvested, transferred to preweighed tubes and counted in a Beckman gamma counter. The tubes were subsequently reweighed to give the weight of the corresponding tissues. Preweighed tubes containing ^1 -ml samples of a 1:100 dilution of the injection dose were also counted and used as reference for calculating the tissue accumulation of radioactivity. The accumulation of radiotracer was expressed as a percentage of injected dose per gram of tissue.

[2] = coadministered blocker, listed as (-)-[^125 I]5
[3] = + (dl)-vesamicol HCl 0.3 (Table 3) or 0.31 mg/kg

In the case of `OC(Cc1ccc([125I])cc1)CN1CCC(c2ccccc2)CC1` (single isomer, unassigned; (-)) [(-)-4-[^125 l]HIPP] [2-Hydroxy-3-(4-iodophenyl)-1-(4-phenylpiperidyl)propane], the “reduction of accumulation of radioactivity in the brain” value (vesamicol receptor; [2]) is reported as 70%, the “reduction of accumulation of radioactivity in the heart” value (vesamicol receptor; [2]) is reported as 84% and the “Brain: Blood Ratio” value (vesamicol receptor; + (+)-7 HCl 0.53 mg/kg) is reported as 5.6. The “Heart: Blood Ratio” value (vesamicol receptor; + (+)-7 HCl 0.53 mg/kg) was 2.5, the radioactivity in liver (vesamicol receptor; + (+)-7 HCl 0.53 mg/kg) was 2.87 % dose/g of tissue and the “Brain: Blood Ratio” value (vesamicol receptor; + (-)-7 HCl 0.53 mg/kg) was 7.1. The “Heart: Blood Ratio” value (vesamicol receptor; + (-)-7 HCl 0.53 mg/kg) was 3.0, the radioactivity in liver (vesamicol receptor; + (-)-7 HCl 0.53 mg/kg) was 1.90 % dose/g of tissue and the “Brain: Blood Ratio” value (vesamicol receptor; [3]) was 12.7. For the same compound, the “Heart: Blood Ratio” value (vesamicol receptor; [3]) was 4.9, the “Brain: Blood Ratio” value (vesamicol receptor; radiotracer only (control)) was 42.7 and the “Heart: Blood Ratio” value (vesamicol receptor; radiotracer only (control)) was 36.5. For the same compound, the “radioactivity in cerebellar molecular layer relative to granular layer” value (rat brain) was “slightly higher concentration”, the “radioactivity in frontal cortex and caudate-putamen” value (rat brain) was “Moderate levels” and the “radioactivity in pineal gland and nuclei of fifth and seventh cranial nerves” value (rat brain) was “highest levels”. For the same compound, the “radioactivity in the white matter” value (rat brain) was “relatively low”, the “injected dose found in the brain” value ([1]; rat, 5 minutes post injection, listed as (-)-[^125 I]5) was 1.94 % of the injected dose and the “injected dose found in the heart” value ([1]; rat, 5 minutes post-injection, listed as (-)-[^125 I]5) was 1.2 % of the injected dose. The “reduction of injected dose in the heart” value ([1]; rat, 5 minutes to 3 hours) was 50%, the “injected dose found in the heart” value ([1]; rat, after 3 hours) was 0.59 % of the injected dose and the “concentration of radioactivity in the brain over time” value ([1]; rat, duration of the study (3 hours), listed as (-)-[^125 I]5) was “remained essentially stable”. The “Brain: Blood Ratio” value ([1]; rat, 5 min) was 12.3, the “Heart: Blood Ratio” value ([1]; rat, 5 min) was 16.4 and the radioactivity in blood ([1]; rat, 5 min) was 0.09 % dose/g. For the same compound, the radioactivity in brain ([1]; rat, 5 min) was 1.03 % dose/g, the radioactivity in heart ([1]; rat, 5 min) was 1.32 % dose/g and the radioactivity in kidney ([1]; rat, 5 min) was 2.89 % dose/g. For the same compound, the radioactivity in liver ([1]; rat, 5 min) was 1.33 % dose/g, the radioactivity in lung ([1]; rat, 5 min) was 8.62 % dose/g and the radioactivity in muscle ([1]; rat, 5 min) was 0.35 % dose/g. For the same compound, the radioactivity in spleen ([1]; rat, 5 min) was 0.87 % dose/g, the “Brain: Blood Ratio” value ([1]; rat, 30 min) was 31.3 and the “Heart: Blood Ratio” value ([1]; rat, 30 min) was 26.8. The radioactivity in blood ([1]; rat, 30 min) was 0.03 % dose/g, the radioactivity in brain ([1]; rat, 30 min) was 0.94 % dose/g and the radioactivity in heart ([1]; rat, 30 min) was 0.74 % dose/g. The radioactivity in kidney ([1]; rat, 30 min) was 2.23 % dose/g, the radioactivity in liver ([1]; rat, 30 min) was 2.28 % dose/g and the radioactivity in lung ([1]; rat, 30 min) was 4.80 % dose/g. For the same compound, the radioactivity in muscle ([1]; rat, 30 min) was 0.19 % dose/g, the radioactivity in spleen ([1]; rat, 30 min) was 1.09 % dose/g and the “Brain: Blood Ratio” value ([1]; rat, 60 min) was 55.5. The “Heart: Blood Ratio” value ([1]; rat, 60 min) was 40.3, the radioactivity in blood ([1]; rat, 60 min) was 0.02 % dose/g and the radioactivity in brain ([1]; rat, 60 min) was 0.98 % dose/g. For the same compound, the radioactivity in heart ([1]; rat, 60 min) was 0.72 % dose/g, the radioactivity in kidney ([1]; rat, 60 min) was 1.85 % dose/g and the radioactivity in liver ([1]; rat, 60 min) was 2.0 % dose/g. It also gave a radioactivity in lung ([1]; rat, 60 min) of 3.33 % dose/g, a radioactivity in muscle ([1]; rat, 60 min) of 0.18 % dose/g and a radioactivity in spleen ([1]; rat, 60 min) of 1.40 % dose/g. For the same compound, the “Brain: Blood Ratio” value ([1]; rat, 180 min) was 69.7, the “Heart: Blood Ratio” value ([1]; rat, 180 min) was 42.5 and the radioactivity in blood ([1]; rat, 180 min) was 0.01 % dose/g. For the same compound, the radioactivity in brain ([1]; rat, 180 min) was 0.94 % dose/g, the radioactivity in heart ([1]; rat, 180 min) was 0.57 % dose/g and the radioactivity in kidney ([1]; rat, 180 min) was 1.63 % dose/g. The radioactivity in liver ([1]; rat, 180 min) was 2.43 % dose/g, the radioactivity in lung ([1]; rat, 180 min) was 2.52 % dose/g and the radioactivity in muscle ([1]; rat, 180 min) was 0.16 % dose/g. For the same compound, the radioactivity in spleen ([1]; rat, 180 min) was 1.21 % dose/g, the “level of radioactivity in the blood” value ([1]; rat, throughout the study) was “low” and the “brain retention (in words)” value ([1]; rodent (and monkey)) was “comparable retention”.
